From paper PMC3517155 (ChemMedChem, 2009)

Tests used:
DAT [1] = biological target: T1, DAT (Rattus norvegicus, UniProt P23977); experiment: DAT binding, inhibition of [3H]WIN 35,428 binding in rat striatum
DAT [2] = biological target: T1, DAT; experiment: DAT uptake, inhibition of [3H]DA uptake in rat striatum; assay type: biochemical; settings: for Selectivity ratio DAT uptake/DAT binding: ratio of Ki values
SERT = SERT (Rattus norvegicus, UniProt P31652); experiment: SERT uptake, inhibition of [3H]5-HT uptake in rat cerebral cortex; assay type: biochemical; settings: for Selectivity ratio SERT uptake/DAT uptake: ratio of Ki values
SERT, sequence (P31652 whole entry): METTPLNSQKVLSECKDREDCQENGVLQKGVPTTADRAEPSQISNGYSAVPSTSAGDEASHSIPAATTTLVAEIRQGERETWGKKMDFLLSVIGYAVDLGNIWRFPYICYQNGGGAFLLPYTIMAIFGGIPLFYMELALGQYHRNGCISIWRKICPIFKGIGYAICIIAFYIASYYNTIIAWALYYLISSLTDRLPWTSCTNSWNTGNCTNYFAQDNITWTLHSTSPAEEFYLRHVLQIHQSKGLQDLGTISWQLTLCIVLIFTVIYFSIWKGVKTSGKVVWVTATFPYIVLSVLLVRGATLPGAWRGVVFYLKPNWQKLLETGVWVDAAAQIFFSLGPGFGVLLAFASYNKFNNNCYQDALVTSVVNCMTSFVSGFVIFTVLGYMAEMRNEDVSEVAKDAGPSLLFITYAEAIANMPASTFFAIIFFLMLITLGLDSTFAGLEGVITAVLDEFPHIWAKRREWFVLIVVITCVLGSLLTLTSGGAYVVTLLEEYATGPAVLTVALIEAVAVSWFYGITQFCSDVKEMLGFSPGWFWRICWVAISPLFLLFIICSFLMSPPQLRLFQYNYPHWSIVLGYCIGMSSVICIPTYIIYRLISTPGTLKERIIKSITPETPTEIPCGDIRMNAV

NET = NET uptake, inhibition of [3H]NE uptake in rat hippocampus; assay type: biochemical; settings: ratio of Ki values
Swiss-Webster mice = experiment: Locomotor activity in mice; settings: i.p., 1 mg/kg
[3] = system: rats trained to discriminate 10 mg/kg cocaine from saline; experiment: Cocaine drug discrimination in rats; settings: at 10 and 30 mg/kg i.p.

T1 sequence (P23977 whole entry): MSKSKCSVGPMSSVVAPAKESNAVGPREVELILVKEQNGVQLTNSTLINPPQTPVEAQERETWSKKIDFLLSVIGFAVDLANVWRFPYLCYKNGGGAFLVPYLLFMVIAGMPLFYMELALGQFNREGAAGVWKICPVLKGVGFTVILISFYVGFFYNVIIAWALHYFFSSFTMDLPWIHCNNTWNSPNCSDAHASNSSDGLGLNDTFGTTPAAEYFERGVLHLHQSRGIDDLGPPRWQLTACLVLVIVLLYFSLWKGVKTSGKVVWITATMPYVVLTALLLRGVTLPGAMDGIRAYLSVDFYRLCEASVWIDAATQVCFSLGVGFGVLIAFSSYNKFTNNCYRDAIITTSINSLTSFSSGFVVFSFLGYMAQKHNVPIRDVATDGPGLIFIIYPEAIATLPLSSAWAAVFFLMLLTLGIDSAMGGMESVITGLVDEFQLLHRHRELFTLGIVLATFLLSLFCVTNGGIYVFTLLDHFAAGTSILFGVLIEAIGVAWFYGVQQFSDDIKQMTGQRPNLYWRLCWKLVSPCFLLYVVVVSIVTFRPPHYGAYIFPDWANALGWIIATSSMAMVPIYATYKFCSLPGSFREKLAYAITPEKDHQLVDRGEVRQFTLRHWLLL

Row | Compound | Ki (DAT [1]) [nM] | Ki (DAT [2]) [nM] | Selectivity ratio DAT uptake/DAT binding (DAT [2]) | Ki (SERT) [nM] | Selectivity ratio SERT uptake/DAT uptake (SERT) | Selectivity ratio NET uptake/DAT uptake (NET) | time of peak effect on distance traveled (Swiss-Webster mice) [min] | percentage of cocaine-lever responding [3] [%]
1 | O[C@@H](CN1CC[C@H](CCOC(c2ccccc2)c2ccccc2)[C@@H](O)C1)c1ccccc1 [Compound 9a, (3R,4R)-4-(2-(Benzhydryloxy)ethyl)-1-((R)-2-hydroxy-2-phenylethyl)-piperidin-3-ol] | 6.76 ± 1.75 | 6.23 ± 2.38 | 0.92 | 456 ± 102 | 73 | 1.2 | 20 to 30 | –
2 | O[C@@H]1CN(C[C@H](O)c2ccc(F)cc2)CC[C@H]1CCOC(c1ccccc1)c1ccccc1 [9c′, (3S,4S)-4-(2-(benzhydryloxy)ethyl)-1-((R)-2-(4-fluorophenyl)-2-hydroxyethyl)piperidin-3-ol] | – | 2.44 ± 0.37 | – | 402 ± 67 | 160 | 10 | – | –
3 | O[C@H](CN1CC[C@H](CCOC(c2ccccc2)c2ccccc2)[C@@H](O)C1)c1ccccc1 [Compound 9b, (3R,4R)-4-(2-(Benzhydryloxy)ethyl)-1-((S)-2-hydroxy-2-phenylethyl)piperidin-3-ol] | 2.29 ± 0.85 | 4.69 ± 2.06 | 2.0 | 155 ± 26 | 33 | 17 | – | –
4 | O[C@H](CN1CC[C@@H](CCOC(c2ccccc2)c2ccccc2)[C@H](O)C1)c1ccc(F)cc1 [9d′, (3S,4S)-4-(2-(Benzhydryloxy)ethyl)-1-((S)-2-(4-fluorophenyl)-2-hydroxyethyl)piperidin-3-ol] | 2.59 ± 0.66 | 2.97 ± 0.72 | 1.2 | 1790 | 600 | 7.0 | – | –
5 | O[C@@H]1CN(C[C@H](O)c2ccccc2)CC[C@H]1CCOC(c1ccccc1)c1ccccc1 [9a′, (3S,4S)-4-(2-(Benzhydryloxy)ethyl)-1-((R)-2-hydroxy-2-phenylethyl)piperidin-3-ol] | 40.1 ± 19.2 | 18.4 ± 9.5 | 0.46 | – | 23 | 1.5 | – | –
6 | O[C@@H](CN1CC[C@H](CCOC(c2ccccc2)c2ccccc2)[C@@H](O)C1)c1ccc(F)cc1 [Compound 9c, (3R,4R)-4-(2-(Benzhydryloxy)ethyl)-1-((R)-2-(4-fluorophenyl)-2-hydroxyethyl)piperidin-3-ol] | 2.17 ± 0.67 | 4.04 ± 1.22 | 2.0 | 1050 | 260 | 5.4 | – | –
7 | O[C@H](CN1CC[C@H](CCOC(c2ccccc2)c2ccccc2)[C@@H](O)C1)c1ccc(F)cc1 [Compound 9d, (3R,4R)-4-(2-(Benzhydryloxy)ethyl)-1-((S)-2-(4-fluorophenyl)-2-hydroxyethyl)piperidin-3-ol] | 2.65 ± 0.99 | 1.55 ± 0.27 | 0.59 | 259 ± 36 | 170 | 9.1 | – | –
8 | O[C@H](CN1CC[C@@H](CCOC(c2ccccc2)c2ccccc2)[C@H](O)C1)c1ccccc1 [9b′, (3S,4S)-4-(2-(Benzhydryloxy)ethyl)-1-((S)-2-hydroxy-2-phenylethyl)piperidin-3-ol] | 0.486 ± 0.065 | 1.06 ± 0.42 | 2.2 | 231 ± 49 | 220 | 110 | – | –
9 | COC(=O)[C@H]1[C@@H](OC(=O)c2ccccc2)C[C@@H]2CC[C@H]1N2C [cocaine] | – | – | – | – | – | – | – | ≥ 80
